Measured values: publication PMC9311596, “Main Bioactive Components and Their Biological Activities from Natural and Processed Rhizomes of Polygonum sibiricum” (Antioxidants, 2022)
“Also recorded” adds a separate entry of the source. Where two headings read alike, the source gives them in different places.

Assays:
[1] = ABTS radical scavenging assay; settings: for EC50: isolated components, read-out: SC50 ABTS
Method: (§1) This assay was determined using the procedure previously reported.

[2] = tested on: LPS-induced NO production in RAW264.7 macrophages; experiment: Nitric oxide inhibitory assay; format: cell-based, Murine; settings: Mus musculus
Method: Murine RAW264.7 macrophages were cultured in DMEM medium containing 10% fetal bovine serum (FBS) and 1% penicillin at 37 °C, 5% CO2 [37].
The NO inhibitory assay was performed based on the reference method.

[3] = Ferric reducing antioxidant power (FRAP) assay; settings: for FRAP (TE): isolated components, mM Trolox equivalents per gram
Method: The FRAP assay was determined using the method previously reported.

[4] = DPPH radical scavenging assay; settings: for EC50: isolated components, read-out: SC50 DPPH
Method: as §1

[5] = target: T1, acetylcholinesterase (AChE) (Electrophorus electricus, UniProt O42275); experiment: biochemical
T1 construct: purchased Sigma-Aldrich
Method: The AChE inhibitory assay was performed according to the previous method, with slight modifications. First, 1 mL of DTNB (15 mM) solution, 1 mL of AChI (15 mM) solution, 1 mL of AChE (0.2 U/mL), and various concentrations of PS (50–400 μg/mL) were prepared using sodium phosphate buffer (0.1 M, pH 8.0). The reaction was started by adding 140 μL PBS, 10 μL DTNB solution, 15 μL AChE solution and 20 μL sample. The reaction mixture was incubated at 20 °C in the dark for 10 min, and 10 μL of AChI solution was added. Finally, the reaction mixture was incubated at 20 °C for 10 min, and the absorbance was measured at 405 nm.

[6] = Superoxide radical scavenging assay; settings: isolated components; read-out: SC50 Superoxide
Method: This assay was determined using the method previously reported.

[7] = tested on: IL-6; experiment: Western blot analysis of IL-6; format: cell-based, Murine; settings: 12.5, 25, and 50 µM, LPS 100 ng/mL, RAW264.7
Method: (§2) The Western blot analysis was performed using the reference method with slight modifications. RAW264.7 cells were seeded in 6 cm dishes for 24 h. The cells were treated with sample (12.5, 25, and 50 µM) and LPS (100 ng/mL). After treatment with drugs, cells were washed with cold PBS, and proteins were collected with lysis buffer containing protein inhibitors. After quantification, equal amounts of protein samples were separated using 5–8% SDS-polyacrylamide gels. The proteins were transferred to the membrane by electrophoresis. The membranes were soaked in 2% BSA blocking buffer for 2 h and then washed 2–3 times with TBST. Next, the membranes were visualized with primary antibody (iNOS, TNF-α, and IL-6) and soaked for 1 day. The next day, membranes were washed again with TBST 2–3 times and then soaked with secondary antibody for 2 h. Finally, immuno-reactivity was detected with ECL reagents, exposed with a luminometer photometer, and quantified with Image J.

[8] = tested on: iNOS; experiment: Western blot analysis of iNOS; format: cell-based, Murine; settings: 12.5, 25, and 50 µM, LPS 100 ng/mL, RAW264.7
Method: as §2

[9] = tested on: TNF-α; experiment: Western blot analysis of TNF-α; format: cell-based, Murine; settings: 12.5, 25, and 50 µM, LPS 100 ng/mL, RAW264.7
Method: as §2

[10] = isolated compounds, LPS-induced NO, RAW264.7, read-out: Nitric Oxide IC50
[11] = isolated compounds, read-out: AChE IC50 (converted)
[12] = solvent extracts, concentration causing 50% free radical scavenging
[13] = RAW264.7, read-out: Nitric Oxide IC50

T1 sequence (O42275 24-633): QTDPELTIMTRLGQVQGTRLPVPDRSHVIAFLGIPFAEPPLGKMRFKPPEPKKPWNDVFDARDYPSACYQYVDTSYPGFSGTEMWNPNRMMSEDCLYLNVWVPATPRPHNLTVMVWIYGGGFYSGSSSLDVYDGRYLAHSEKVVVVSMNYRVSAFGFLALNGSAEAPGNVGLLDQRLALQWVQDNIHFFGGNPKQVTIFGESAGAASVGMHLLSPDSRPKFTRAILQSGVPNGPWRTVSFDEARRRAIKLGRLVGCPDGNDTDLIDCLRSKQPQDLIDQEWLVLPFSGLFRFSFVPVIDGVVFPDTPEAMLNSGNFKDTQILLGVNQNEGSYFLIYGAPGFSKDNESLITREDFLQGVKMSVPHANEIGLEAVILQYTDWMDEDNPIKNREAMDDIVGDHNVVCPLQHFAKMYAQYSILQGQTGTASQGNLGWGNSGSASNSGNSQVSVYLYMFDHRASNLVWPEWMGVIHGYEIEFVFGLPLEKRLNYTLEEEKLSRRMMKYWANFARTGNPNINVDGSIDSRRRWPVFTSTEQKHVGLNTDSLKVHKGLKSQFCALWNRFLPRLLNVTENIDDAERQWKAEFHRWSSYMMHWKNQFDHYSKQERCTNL

SMILES | EC50 [1] [µM] | IC50 [2, 10] [µM] | FRAP (TE) [3] [mM/g] | EC50 [4] [µM] | IC50 [5, 11] [µM] | EC50 [6] [µM] | SC50 ABTS [1, 12] [µg/mL] | TE FRAP ([3]; solvent extracts, mM Trolox equivalents per gram of fresh extract) [mM/g] | SC50 DPPH [4, 12] [µg/mL] | IC50 ([2]; solvent extracts, LPS-induced NO, RAW264.7, read-out: Nitric Oxide IC50) [mg/L] | IC50 ([5]; solvent extracts, read-out: AChE IC50 (converted)) [µM] | IC50 [2, 13] [µM] | inhibition of IL-6 production [7] | inhibition of iNOS production [8] | IC50 [5] [µM] | inhibition of TNF-α production [9]
O=Cc1ccc(CO)o1 [5-HMF (1), 5-hydroxymethylfurfural] | > 400 | 34.9 ± 8.8 | 26.70 ± 0.97 | > 400 | 81.5 ± 11.1 | > 400 |  |  |  |  |  |  |  |  |  | 
Cc1cc(C(C)(C)C)c(O)c(C(C)(C)C)c1 [BHT, Butylated hydroxytoluene, reference compound] | 100 ± 7.26 |  | 2896.93 ± 21.19 | 192 ± 8.94 |  |  | 20.57 ± 0.22 | 3005.93 ± 13.10 | 35.54 ± 0.64 |  |  |  |  |  |  | 
O=c1c(O)c(-c2ccc(O)c(O)c2)oc2cc(O)cc(O)c12 [Quercetin, quercetin, reference compound] |  | 18.3 ± 0.54 |  |  |  |  |  |  |  | 7.52 ± 0.25 |  |  |  |  |  | 
O=C(/C=C/c1ccc(O)c(O)c1)O[C@@H]1C[C@](O)(C(=O)O)C[C@@H](O)[C@H]1O [Chlorogenic acid, chlorogenic acid, reference compound] |  |  |  |  | 68.2 ± 2.9 |  |  |  |  |  | 65.7 |  |  |  |  | 
O=c1c(O[C@@H]2O[C@H](CO)[C@@H](O)[C@H](O)[C@H]2O)c(-c2ccc(O)c(O)c2)oc2cc(O)cc(O)c12 [Isoquercetin (3), isoquercetin] | 22.7 ± 1.17 |  | 3898.88 ± 23.23 | 12.6 ± 3.21 |  | 180 ± 4.43 |  |  |  |  |  | 17 ± 1.28 | significantly inhibited the production of TNF-α and IL-6 in a concentration-dependent manner | significantly inhibited iNOS production in a concentration-dependent manner | 23.1 ± 3.15 | significantly inhibited the production of TNF-α and IL-6 in a concentration-dependent manner
COc1cc2ccc(=O)oc2cc1O [Scopoletin (2), scopoletin] | 91.3 ± 3.36 | 36.3 ± 4.65 | 2892.97 ± 19.18 | > 400 |  | > 400 |  |  |  |  |  |  |  |  | 32.4 ± 2.05 | 
O=c1c(O[C@@H]2O[C@H](CO)[C@H](O)[C@H](O)[C@H]2O)c(-c2ccc(O)c(O)c2)oc2cc(O)cc(O)c12 [Hyperoside (4), hyperoside] | 29.3 ± 0.51 |  | 3246.93 ± 31.92 | 12.5 ± 4.02 |  | 172 ± 3.8 |  |  |  |  |  | 18.9 ± 1.68 | significantly inhibited the production of TNF-α and IL-6 in a concentration-dependent manner | significantly inhibited iNOS production in a concentration-dependent manner | 121 ± 10.7 | significantly inhibited the production of TNF-α and IL-6 in a concentration-dependent manner
C[C@@H]1O[C@@H](OC[C@H]2O[C@@H](Oc3c(-c4ccc(O)c(O)c4)oc4cc(O)cc(O)c4c3=O)[C@H](O)[C@@H](O)[C@@H]2O)[C@H](O)[C@H](O)[C@H]1O [Rutin (5), rutin] | 15.4 ± 0.25 |  | 2221.33 ± 5.02 | 5.6 ± 0.34 |  | 175 ± 3.02 |  |  |  |  |  | 9.89 ± 1.36 | significantly inhibited the production of TNF-α and IL-6 in a concentration-dependent manner | strongest inhibitory effect among all isolated compounds; also recorded: significantly inhibited iNOS production in a concentration-dependent manner | 33.1 ± 5.43 | significantly inhibited the production of TNF-α and IL-6 in a concentration-dependent manner
